{"source": "patent US11873298B2", "about": "“Compounds and uses thereof” (JANSSEN PHARMACEUTICA NV, priority 2017, dated 2024)", "key": {"[1]": {"target": "T1, SCD5 (Homo sapiens, UniProt Q86SK9)", "T1 construct": "host or cells: S. cerevisiae ole1Δ strain (W303 pdr1Δ pdr3Δ background), plasmid pRS316 with TDH3 promoter and CYC1 terminator", "T1 sequence (Q86SK9 1-330)": "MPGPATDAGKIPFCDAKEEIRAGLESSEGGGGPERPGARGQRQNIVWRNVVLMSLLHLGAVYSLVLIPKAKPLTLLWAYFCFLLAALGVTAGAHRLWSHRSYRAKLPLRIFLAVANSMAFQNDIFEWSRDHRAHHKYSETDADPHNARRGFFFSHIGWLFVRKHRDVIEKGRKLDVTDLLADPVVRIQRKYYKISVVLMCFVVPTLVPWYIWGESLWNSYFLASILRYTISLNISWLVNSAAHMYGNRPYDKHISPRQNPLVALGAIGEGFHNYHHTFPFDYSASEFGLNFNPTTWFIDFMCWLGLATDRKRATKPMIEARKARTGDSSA", "assay": "Growth inhibition of humanized yeast strain expressing SCD5 as sole desaturase", "format": "cell-based", "summary_of_the_method": "(§1)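 Measured by optical density at 600 nm, growth of desaturase-dependent yeast (OLE1 deleted; human SCD1, human SCD5 or yeast Ole1 supplied from plasmid) was scored after 24 h (Ole1) or 40 h (SCD1, SCD5) at 30° C. in galactose media lacking uracil with DMSO-delivered compound.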"}, "[2]": {"target": "T2, SCD1 (Homo sapiens, UniProt O00767)", "T2 construct": "host or cells: S. cerevisiae ole1Δ strain (W303 pdr1Δ pdr3Δ background), plasmid pRS316 with TDH3 promoter and CYC1 terminator", "T2 sequence (O00767 1-359)": "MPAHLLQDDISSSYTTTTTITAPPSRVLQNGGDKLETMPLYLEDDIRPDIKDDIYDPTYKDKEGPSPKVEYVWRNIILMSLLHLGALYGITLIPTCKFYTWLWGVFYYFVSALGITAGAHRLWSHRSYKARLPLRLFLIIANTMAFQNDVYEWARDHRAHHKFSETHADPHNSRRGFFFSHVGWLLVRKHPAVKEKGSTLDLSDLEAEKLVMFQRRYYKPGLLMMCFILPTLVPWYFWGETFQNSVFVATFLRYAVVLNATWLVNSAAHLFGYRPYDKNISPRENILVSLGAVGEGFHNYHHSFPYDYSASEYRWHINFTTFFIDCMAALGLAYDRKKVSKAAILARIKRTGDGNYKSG", "assay": "Growth inhibition of humanized yeast strain expressing SCD1 as sole desaturase", "format": "cell-based", "summary_of_the_method": "as §1"}, "[3]": {"settings": "growth inhibition of humanized yeast strain expressing human SCD5"}, "[4]": {"settings": "growth inhibition of humanized yeast strain expressing human SCD1"}}, "data": [{"smiles": "COC(=O)N1CCC(c2noc(-c3ccc4c(C)nn(C)c4c3)n2)CC1", "note": "[Compound 921]", "values": [{"measurement": "IC50", "setting": "[1]; humanized yeast strain, 40 h", "result": 3.4, "unit": "µM"}, {"measurement": "IC50", "setting": "[2]; humanized yeast strain, 40 h", "result": "> 45", "unit": "µM"}]}, {"smiles": "CC(C)(C)OC(=O)N1CCC(c2noc(-c3cccc([C@H]4CCOC4)c3)n2)CC1", "note": "[Compound 789]", "values": [{"measurement": "IC50", "setting": "[1]; humanized yeast strain, 40 h", "result": 0.01, "unit": "µM"}, {"measurement": "IC50", "setting": "[2]; humanized yeast strain, 40 h", "result": "> 45", "unit": "µM"}]}, {"smiles": "Cc1nn(C)c2cc(-c3nc(C4CCN(S(=O)(=O)C5CC5)CC4)no3)ccc12", "note": "[Compound 922]", "values": [{"measurement": "IC50", "setting": "[1]; humanized yeast strain, 40 h", "result": 6.56, "unit": "µM"}, {"measurement": "IC50", "setting": "[2]; humanized yeast strain, 40 h", "result": "> 45", "unit": "µM"}]}, {"smiles": "CC(C)(C)OC(=O)N1CCC(c2noc(-c3cc(N4CCOCC4)ccc3F)n2)CC1", "note": "[Compound 1156]", "values": [{"measurement": "IC50", "setting": "[1]; humanized yeast strain, 40 h", "result": 0.493, "unit": "µM"}, {"measurement": "IC50", "setting": "[2]; humanized yeast strain, 40 h", "result": "> 45", "unit": "µM"}]}, {"smiles": "CC(C)n1ncc2ccc(-c3noc(N4C[C@@H]5CN(C(=O)OC(C)(C)C)C[C@H]5C4)n3)cc21", "note": "[Compound 667]", "values": [{"measurement": "IC50", "setting": "[1]; [3]", "result": 0.87, "unit": "µM"}, {"measurement": "IC50", "setting": "[2]; [4]", "result": "> 45", "unit": "µM"}]}, {"smiles": "CCC(=O)N1CCC(c2noc(-c3ccc4cnn(C5COC5)c4c3)n2)CC1", "note": "[Compound 891]", "values": [{"measurement": "IC50", "setting": "[1]; humanized yeast strain, 40 h", "result": 0.01, "unit": "µM"}, {"measurement": "IC50", "setting": "[2]; humanized yeast strain, 40 h", "result": "> 45", "unit": "µM"}]}, {"smiles": "CC(C)(C)OC(=O)N1CCC(c2nc(-c3ccc4cnn(C5CC(=O)C5)c4c3)no2)CC1", "note": "[Compound 787]", "values": [{"measurement": "IC50", "setting": "[1]; humanized yeast strain, 40 h", "result": 0.108, "unit": "µM"}, {"measurement": "IC50", "setting": "[2]; humanized yeast strain, 40 h", "result": 31.5, "unit": "µM"}]}, {"smiles": "COc1cc(-c2nc(C3CCN(C(=O)OC(C)(C)C)CC3)no2)cc2c1cnn2C1COC1", "note": "[Compound 1076]", "values": [{"measurement": "IC50", "setting": "[1]; humanized yeast strain, 40 h", "result": 1.03, "unit": "µM"}, {"measurement": "IC50", "setting": "[2]; humanized yeast strain, 40 h", "result": "> 45", "unit": "µM"}]}, {"smiles": "O=C(N1CCC(c2noc(-c3ccc4oc(=O)n(C5COC5)c4c3)n2)CC1)C1(F)CC1", "note": "[Compound 1131]", "values": [{"measurement": "IC50", "setting": "[1]; humanized yeast strain, 40 h", "result": 0.207, "unit": "µM"}, {"measurement": "IC50", "setting": "[2]; humanized yeast strain, 40 h", "result": "> 45", "unit": "µM"}]}, {"smiles": "CC(C)n1ncc2ccc(-c3noc(C4CCN(C(=O)CNC(=O)c5ccccc5)CC4(F)F)n3)cc21", "note": "(stereo not shown) [Compound 679]", "values": [{"measurement": "IC50", "setting": "[1]; [3]", "result": "> 45", "unit": "µM"}, {"measurement": "IC50", "setting": "[2]; [4]", "result": "> 45", "unit": "µM"}]}, {"smiles": "CC(C)(C)OC(=O)N1CCCN(c2noc(-c3ccc4cnn(C5COC5)c4c3)n2)CC1", "note": "[Compound 854]", "values": [{"measurement": "IC50", "setting": "[1]; humanized yeast strain, 40 h", "result": 0.01, "unit": "µM"}, {"measurement": "IC50", "setting": "[2]; humanized yeast strain, 40 h", "result": 14.6, "unit": "µM"}]}, {"smiles": "O=C(N1CCN(c2noc(-c3ccc4cnn(C5COC5)c4c3)n2)CC1)C1(F)CC1", "note": "[Compound 970]", "values": [{"measurement": "IC50", "setting": "[1]; humanized yeast strain, 40 h", "result": 0.00196, "unit": "µM"}, {"measurement": "IC50", "setting": "[2]; humanized yeast strain, 40 h", "result": 8.5, "unit": "µM"}]}, {"smiles": "CC(C)(C)OC(=O)N1CC=C(c2ccc(-c3ccc4cnn(C5COC5)c4c3)nc2)CC1", "note": "[Compound 1010]", "values": [{"measurement": "IC50", "setting": "[1]; humanized yeast strain, 40 h", "result": 0.816, "unit": "µM"}, {"measurement": "IC50", "setting": "[2]; humanized yeast strain, 40 h", "result": "> 45", "unit": "µM"}]}, {"smiles": "CC(C)(C)OC(=O)N1CCC(N2CCN(c3ccc4cnn(C5COC5)c4c3)C2=O)CC1", "note": "[Compound 810]", "values": [{"measurement": "IC50", "setting": "[1]; humanized yeast strain, 40 h", "result": 2.5, "unit": "µM"}, {"measurement": "IC50", "setting": "[2]; humanized yeast strain, 40 h", "result": "> 45", "unit": "µM"}]}, {"smiles": "CC(C)(C)OC(=O)N1CCC(c2nc(-c3ccc4cnn(CC5CCNC5=O)c4c3)no2)CC1", "note": "(stereo not shown) [Compound 645]", "values": [{"measurement": "IC50", "setting": "[1]; [3]", "result": 4.47, "unit": "µM"}, {"measurement": "IC50", "setting": "[2]; [4]", "result": 17.9, "unit": "µM"}]}, {"smiles": "CC(C)(C)OC(=O)N1CCC(c2noc(-c3ccc4cnn(C5CCOC5)c4c3)n2)CC1", "note": "(stereo not shown) [Compound 817]", "values": [{"measurement": "IC50", "setting": "[1]; humanized yeast strain, 40 h", "result": 0.01, "unit": "µM"}, {"measurement": "IC50", "setting": "[2]; humanized yeast strain, 40 h", "result": 4.13, "unit": "µM"}]}, {"smiles": "CC(C)n1ncc2ccc(-c3noc(C4CCN(C(=O)N5CCCC5(C)CO)CC4)n3)cc21", "note": "(stereo not shown) [Compound 687]", "values": [{"measurement": "IC50", "setting": "[1]; [3]", "result": "> 45", "unit": "µM"}, {"measurement": "IC50", "setting": "[2]; [4]", "result": "> 45", "unit": "µM"}]}, {"smiles": "CC(C)(C)OC(=O)N1CCC(c2noc(-c3ccn(C4COC4)c(=O)c3)n2)CC1", "note": "[Compound 1121]", "values": [{"measurement": "IC50", "setting": "[1]; humanized yeast strain, 40 h", "result": 15.5, "unit": "µM"}, {"measurement": "IC50", "setting": "[2]; humanized yeast strain, 40 h", "result": "> 45", "unit": "µM"}]}, {"smiles": "CC(C)n1ncc2ccc(-c3noc(N4CCN(C(=O)CC5CC5)CC4)n3)cc21", "note": "[Compound 869]", "values": [{"measurement": "IC50", "setting": "[1]; humanized yeast strain, 40 h", "result": 1.64, "unit": "µM"}, {"measurement": "IC50", "setting": "[2]; humanized yeast strain, 40 h", "result": "> 45", "unit": "µM"}]}, {"smiles": "CC(=O)N1CC(n2cc3ccc(-c4noc(C5CCN(C(=O)OC(C)(C)C)CC5)n4)cc3n2)C1", "note": "[Compound 711]", "values": [{"measurement": "IC50", "setting": "[1]; [3]", "result": "> 45", "unit": "µM"}, {"measurement": "IC50", "setting": "[2]; [4]", "result": "> 45", "unit": "µM"}]}, {"smiles": "COC(=O)N1CCC(c2nc(-c3ccc4onc(C(C)C)c4c3)no2)CC1", "note": "[Compound 646]", "values": [{"measurement": "IC50", "setting": "[1]; [3]", "result": 1.18, "unit": "µM"}, {"measurement": "IC50", "setting": "[2]; [4]", "result": "> 45", "unit": "µM"}]}, {"smiles": "CC1(OC(=O)N2CCC(c3noc(-c4ccnc(N5CCC(F)(F)C5)c4)n3)CC2)CC1", "note": "[Compound 1171]", "values": [{"measurement": "IC50", "setting": "[1]; humanized yeast strain, 40 h", "result": 0.0311, "unit": "µM"}, {"measurement": "IC50", "setting": "[2]; humanized yeast strain, 40 h", "result": 1.14, "unit": "µM"}]}, {"smiles": "CC(=O)N1CC(n2ncc3ccc(-c4nc(C5CCN(C(=O)OC(C)(C)C)CC5)no4)cc32)C1", "note": "[Compound 861]", "values": [{"measurement": "IC50", "setting": "[1]; humanized yeast strain, 40 h", "result": 0.01, "unit": "µM"}, {"measurement": "IC50", "setting": "[2]; humanized yeast strain, 40 h", "result": 15, "unit": "µM"}]}, {"smiles": "CC1(CC(=O)N2CCN(c3noc(-c4ccc5cnn(C6COC6)c5c4)n3)CC2)CC1", "note": "[Compound 842]", "values": [{"measurement": "IC50", "setting": "[1]; humanized yeast strain, 40 h", "result": 0.01, "unit": "µM"}, {"measurement": "IC50", "setting": "[2]; humanized yeast strain, 40 h", "result": "> 45", "unit": "µM"}]}, {"smiles": "COC1CCC(S(=O)(=O)N2CCC(c3nc(-c4ccc5cnn(C(C)C)c5c4)no3)CC2)CC1", "note": "(stereo not shown) [Compound 675]", "values": [{"measurement": "IC50", "setting": "[1]; [3]", "result": 0.01, "unit": "µM"}, {"measurement": "IC50", "setting": "[2]; [4]", "result": "> 45", "unit": "µM"}]}, {"smiles": "O=C(CC1CC1)N1CCC(c2noc(-c3ccc4cnn(C5CCOC5)c4c3)n2)CC1", "note": "(stereo not shown) [Compound 974]", "values": [{"measurement": "IC50", "setting": "[1]; humanized yeast strain, 40 h", "result": 0.01, "unit": "µM"}, {"measurement": "IC50", "setting": "[2]; humanized yeast strain, 40 h", "result": "> 45", "unit": "µM"}]}]}
